Results reported in patent US20210393633A1, “INHIBITORS OF HUMAN IMMUNODEFICIENCY VIRUS REPLICATION” (ViiV HEALTHCARE UK (NO.5) LIMITED, priority 2018, published 2021).

How the values were obtained:
[1] = test system: recombinant NL4-3 virus (nef section replaced with Renilla luciferase gene) in MT-2 cells; assay: HIV cell culture assay (antiviral activity, luciferase readout in infected MT-2 cells); format: cell-based; conditions: NL43
Protocol: HIV cell culture assay—MT-2 cells, 293T cells and the proviral DNA clone of NL4-3 virus were obtained from the NIH AIDS Research and Reference Reagent Program. MT-2 cells were propagated in RPMI 1640 media supplemented with 10% heat inactivated fetal bovine serum (FBS), […]. The 293T cells were propagated in DMEM media supplemented with 10% heat inactivated FBS, […]. A recombinant NL4-3 proviral clone, in which a section of the nef gene was replaced with the Renilla luciferase gene, was used to make the reference virus used in these studies. The recombinant virus was prepared through transfection of the recombinant NL4-3 proviral clone into 293T cells using Transit-293 Transfection Reagent from Minis Bio LLC (Madison, Wis.). Supernatent was harvested after 2-3 days and the amount of virus present was titered in MT-2 cells using luciferase enzyme activity as a marker by measuring luciferase enzyme activity. Luciferase was quantitated using the EnduRen Live Cell Substrate from Promega (Madison, Wis.). Antiviral activities of compounds toward the recombinant virus were quantified by measuring luciferase activity in MT-2 cells infected for 4-5 days with the recombinant virus in the presence of serial dilutions of the compound.
The 50% effective concentration (EC5o) was calculated by using the exponential form of the median effect equation where (Fa)=1/[1+(ED50/drug conc.)m] (Johnson Va., Byington R T. Infectivity Assay. In Techniques in HIV Research. ed. Aldovini A, Walker B D. 71-76. New York: Stockton Press.1990). The 50% inhibitory concentration (EC50) was calculated by using the exponential form of the median effect equation where percent inhibition=1/[1 +(EC50/drug concentration)m], where m is a parameter that reflects the slope of the concentration-response curve.

[2] = Compound cytotoxicity, XTT-based colorimetric assay; format: cell-based; conditions: human; uninfected MT2 cells, day 4, XTT
Protocol: Compound cytotoxicity and the corresponding CC50 values were determined using the same protocol as described in the antiviral assay except that uninfected cells were used. Cytotoxicity was assessed on day 4 in uninfected MT2 cells by using a XTT (2,3-bis[2-Methoxy-4-nitro-5-sulfophenyl]-2H-tetrazolium-5-carboxyanilide inner salt)-based colorimetric assay (Sigma-Aldrich, St Louis, Mo).

Row | SMILES | EC50 [1] | CC50 at 4 day [2]
1 | Cn1nc(NS(C)(=O)=O)c2c(Cl)ccc(-n3c([C@H](Cc4cc(F)cc(F)c4)NC(=O)Cn4nc(C(F)F)c5c4C(F)(F)[C@@H]4C[C@H]54)nc4cc(C(F)(F)C5CCC5)ccc4c3=O)c21 (atropisomer, axis not shown; (P)) [Example 25, N—((S)-1-((3P)-3-(4-chloro-1-methyl-3-(methylsulfonamido)-1H-indazol-7-yl)-7-(cyclobutyldifluoromethyl)-4-oxo-3,4-dihydroquinazolin-2-yl)-2-(3,5-difluorophenyl)ethyl)-2-((3bS,4aR)-3-(difluoromethyl)-5,5-difluoro-3b,4,4a,5-tetrahydro-1H-cyclopropa[3,4]cyclopenta[1,2-c]pyrazol-1-yl)acetamide] | 0.75 nM | > 500 nM
2 | C[C@@H]1CC(c2ccc3c(=O)n(-c4ccc(Cl)c5c(NS(C)(=O)=O)nn(C)c45)c([C@H](Cc4cc(F)cc(F)c4)NC(=O)Cn4nc(C(F)F)c5c4C(F)(F)[C@@H]4C[C@H]54)nc3c2)C[C@H](C)O1 (stereo partly drawn) [Example 22, N-((1S)-1-((3P)-3-(4-chloro-1-methyl-3-(methylsulfonamido)-1H-indazol-7-yl)-7-((2R,6S)-2,6-dimethyltetrahydro-2H-pyran-4-yl)-4-oxo-3,4-dihydroquinazolin-2-yl)-2-(3,5-difluorophenyl)ethyl)-2-((3bS,4aR)-3-(difluoromethyl)-5,5-difluoro-3b,4,4a,5-tetrahydro-1H-cyclopropa[3,4]cyclopenta[1,2-c]pyrazol-1-yl)acetamide] | 0.082 nM | > 500 nM
3 | Cn1nc(NS(C)(=O)=O)c2c(Cl)ccc(-n3c([C@H](Cc4cc(F)cc(F)c4)NC(=O)Cn4nc(C(F)F)c5c4C(F)(F)[C@@H]4C[C@H]54)nc4cc(C5(C(F)(F)F)CC5)ccc4c3=O)c21 (atropisomer, axis not shown; (P)) [Example 27] | 0.13 nM | > 500 nM
4 | O=C(Cn1nc(C(F)F)c2c1C(F)(F)[C@@H]1C[C@H]21)N[C@@H](Cc1cc(F)cc(F)c1)c1nc2cc(C3CCOCC3)ccc2c(=O)n1-c1ccc(Cl)c2c(NS(=O)(=O)C3CC3)nn(CC(F)F)c12 (atropisomer, axis not shown; (P)) [Example 18] | 0.084 nM | > 500 nM
5 | CC1NCCNC1c1ccc2c(=O)n(-c3ccc(Cl)c4c(NS(C)(=O)=O)nn(C)c34)c([C@H](Cc3cc(F)cc(F)c3)NC(=O)Cn3nc(C(F)F)c4c3C(F)(F)[C@@H]3C[C@H]43)nc2c1 (stereo partly drawn) [Example 10, N-((1S)-1-((3P)-3-(4-chloro-1-methyl-3-(methylsulfonamido)-1H-indazol-7-yl)-7-(3-methylpiperazin-2-yl)-4-oxo-3,4-dihydroquinazolin-2-yl)-2-(3,5-difluorophenyl)ethyl)-2-((3bS,4aR)-3-(difluoromethyl)-5,5-difluoro-3b,4,4a,5-tetrahydro-1H-cyclopropa[3,4]cyclopenta[1,2-c]pyrazol-1-yl)acetamide] | 0.933 nM | > 1000 nM
6 | Cn1nc(NS(C)(=O)=O)c2c(Cl)ccc(-n3c([C@H](Cc4cc(F)cc(F)c4)NC(=O)Cn4nc(C(F)F)c5c4C(F)(F)[C@@H]4C[C@H]54)nc4cc(CC5CC5)ccc4c3=O)c21 (atropisomer, axis not shown; (P)) [Example 12, N—((S)-1-((3P)-3-(4-chloro-1-methyl-3-(methylsulfonamido)-1H-indazol-7-yl)-7-(cyclopropylmethyl)-4-oxo-3,4-dihydroquinazolin-2-yl)-2-(3,5-difluorophenyl)ethyl)-2-((3bS,4aR)-3-(difluoromethyl)-5,5-difluoro-3b,4,4a,5-tetrahydro-1H-cyclopropal3,41cyclopenta[1,2-c]pyrazol-1-yl)acetamide] | 0.142 nM | > 1000 nM
7 | C[C@@H]1CC(c2ccc3c(=O)n(-c4ccc(Cl)c5c(NS(=O)(=O)C6CC6)nn(CC(F)F)c45)c([C@H](Cc4cc(F)cc(F)c4)NC(=O)Cn4nc(C(F)F)c5c4C(F)(F)[C@@H]4C[C@H]54)nc3c2)=C[C@H](C)O1 (atropisomer, axis not shown; (P)) [Example 21, N—((S)-1-((3P)-3-(4-chloro-3-(cyclopropanesulfonamido)-1-(2,2-difluoroethyl)-1H-indazol-7-yl)-7-((2R,6S)-2,6-dimethyl-3,6-dihydro-2H-pyran-4-yl)-4-oxo-3,4-dihydroquinazolin-2-yl)-2-(3,5-difluorophenyl)ethyl)-2-((3bS,4aR)-3-(difluoromethyl)-5,5-difluoro-3b,4,4a,5-tetrahydro-1H-cyclopropa[3,4]cyclopenta[1,2-c]pyrazol-1-yl)acetamide] | 0.14 nM | > 500 nM
8 | Cn1nc(NS(C)(=O)=O)c2c(Cl)ccc(-n3c([C@H](Cc4cc(F)cc(F)c4)NC(=O)Cn4nc(C(F)F)c5c4C(F)(F)[C@@H]4C[C@H]54)nc4cc(CCc5ccccc5)ccc4c3=O)c21 (atropisomer, axis not shown; (P)) [Example 3, N—((S)-1-((3P)-3-(4-chloro-1-methyl-3-(methylsulfonamido)-1H-indazol-7-yl)-4-oxo-7-phenethyl-3,4-dihydroquinazolin-2-yl)-2-(3,5-difluorophenyl)ethyl)-2-((3bS,4aR)-3-(difluoromethyl)-5,5-difluoro-3b,4,4a,5-tetrahydro-1H-cyclopropa[3,4]cyclopenta[1,2-c]pyrazol-1-yl)acetamide] | 0.771 nM | > 1000 nM
9 | CS(=O)(=O)Nc1nn(CC(F)F)c2c(-n3c([C@H](Cc4cc(F)cc(F)c4)NC(=O)Cn4nc(C(F)F)c5c4C(F)(F)[C@@H]4C[C@H]54)nc4cc(C5CCOCC5)ccc4c3=O)ccc(Cl)c12 (atropisomer, axis not shown; (P)) [Example 17, N—((S)-1-((3P)-3-(4-chloro-1-(2,2-difluoroethyl)-3-(methylsulfonamido)-1H-indazol-7-yl)-4-oxo-7-(tetrahydro-2H-pyran-4-yl)-3,4-dihydroquinazolin-2-yl)-2-(3,5-difluorophenyl)ethyl)-2-((3bS,4aR)-3-(difluoromethyl)-5,5-difluoro-3b,4,4a,5-tetrahydro-1H-cyclopropal3,41cyclopenta[1,2-c]pyrazol-1-yl)acetamide] | 0.06 nM | > 500 nM
10 | COC(C)(C)CCc1ccc2c(=O)n(-c3ccc(Cl)c4c(NS(C)(=O)=O)nn(C)c34)c([C@H](Cc3cc(F)cc(F)c3)NC(=O)Cn3nc(C(F)F)c4c3C(F)(F)[C@@H]3C[C@H]43)nc2c1 (atropisomer, axis not shown; (P)) [Example 24, N—((S)-1-((3P)-3-(4-chloro-1-methyl-3-(methylsulfonamido)-1H-indazol-7-yl)-7-(3-methoxy-3-methylbutyl)-4-oxo-3,4-dihydroquinazolin-2-yl)-2-(3,5-difluorophenyl)ethyl)-2-((3bS,4aR)-3-(difluoromethyl)-5,5-difluoro-3b,4,4a,5-tetrahydro-1H-cyclopropa[3,4]cyclopenta[1,2-c]pyrazol-1-yl)acetamide] | 0.039 nM | > 500 nM
